The values below come from PubChem BioAssay AID248 (DTP/NCI, 2004).

For this experiment, the system named is L1210 leukemia ip in BDF1 mice, survival T/C. The experiment can be described thus: NCI In Vivo Anticancer Drug Screen. Data for tumor model L1210 Leukemia (intraperitoneal) in B6D2F1 (BDF1) mice. As to conditions: endpoint: mean survival time, higher = longer survival. In outline:
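Tumor cells were implanted, animals were treated, and survival was followed. The result divides the treated measurement by the vehicle-control measurement.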

The mark [1] stands for this setting: dose: 100.0 mg/kg/injection, schedule: Q04DX002 (ip), vehicle: Klucel (hydroxypropylcellulose) (HPC).
[2] abbreviates: dose: 200.0 mg/kg/injection, schedule: Q04DX002 (ip), vehicle: Klucel (hydroxypropylcellulose) (HPC).
Where [3] appears, read: dose: 100.0 mg/kg/injection, schedule: Q01DX009 (ip), vehicle: saline.
[4] abbreviates: dose: 200.0 mg/kg/injection, schedule: Q01DX009 (ip), vehicle: saline.
The mark [5] stands for this setting: dose: 400.0 mg/kg/injection, schedule: Q01DX009 (ip), vehicle: saline.
Setting [6] is: dose: 100.0 mg/kg/injection, schedule: Q04DX003 (ip), vehicle: Klucel (hydroxypropylcellulose) (HPC).
Where [7] appears, read: dose: 100.0 mg/kg/injection, schedule: Q04DX003 (ip), vehicle: saline.
[8] abbreviates: dose: 200.0 mg/kg/injection, schedule: Q04DX003 (ip), vehicle: Klucel (hydroxypropylcellulose) (HPC).
[9] abbreviates: dose: 200.0 mg/kg/injection, schedule: Q04DX003 (ip), vehicle: saline.
[10] abbreviates: dose: 400.0 mg/kg/injection, schedule: Q04DX003 (ip), vehicle: Klucel (hydroxypropylcellulose) (HPC).
The mark [11] stands for this setting: dose: 400.0 mg/kg/injection, schedule: Q04DX003 (ip), vehicle: saline.
The mark [12] stands for this setting: dose: 100.0 mg/kg/injection, schedule: Q01DX009 (ip), vehicle: Klucel (hydroxypropylcellulose) (HPC).
Where [13] appears, read: dose: 25.0 mg/kg/injection, schedule: Q04DX003 (ip), vehicle: saline.
[14] abbreviates: dose: 50.0 mg/kg/injection, schedule: Q04DX003 (ip), vehicle: saline.
The mark [15] stands for this setting: dose: 100.0 mg/kg/injection, schedule: Q01DX001 (ip), vehicle: saline.

“And” between values parts separate entries of the source, which are not always exact repeats. Identical values can stand only once. Inconclusive results and toxic doses are left out.

Consider `Cc1cccc(OC(=O)Nc2cccc(Cl)c2)c1`, for which the T/C is, setting by setting: (dose: 100.0 mg/kg/injection, schedule: Q01DX009 (ip), vehicle: carboxymethylcellulose (CMC)) 98 % of control and 110 % of control; under setting [1], 95 % of control; (dose: 100.0 mg/kg/injection, schedule: Q04DX002 (ip), vehicle: carboxymethylcellulose (CMC)) 93 % of control and 120 % of control and 92 % of control; (dose: 100.0 mg/kg/injection, schedule: Q04DX003 (ip), vehicle: carboxymethylcellulose (CMC)) 103 % of control; (dose: 200.0 mg/kg/injection, schedule: Q01DX009 (ip), vehicle: carboxymethylcellulose (CMC)) 96 % of control and 104 % of control; under setting [2], 92 % of control. Besides, the T/C (dose: 200.0 mg/kg/injection, schedule: Q04DX002 (ip), vehicle: carboxymethylcellulose (CMC)) is 97 % of control and 103 % of control and 106 % of control; the T/C (dose: 200.0 mg/kg/injection, schedule: Q04DX003 (ip), vehicle: carboxymethylcellulose (CMC)) was 110 % of control; the T/C (dose: 400.0 mg/kg/injection, schedule: Q04DX002 (ip), vehicle: Klucel (hydroxypropylcellulose) (HPC)) is 95 % of control; the T/C (dose: 400.0 mg/kg/injection, schedule: Q04DX002 (ip), vehicle: carboxymethylcellulose (CMC)) was 98 % of control and 100 % of control and 124 % of control; the T/C (dose: 400.0 mg/kg/injection, schedule: Q04DX003 (ip), vehicle: carboxymethylcellulose (CMC)) was 94 % of control.

As for `Cc1cc(C(C)(C)C)ccc1S(=O)(=O)/C=C/c1ccccc1`, the T/C by setting is: (dose: 100.0 mg/kg/injection, schedule: Q01DX001 (ip), vehicle: acetone) 95 % of control; under setting [3], 93 % of control; (dose: 200.0 mg/kg/injection, schedule: Q01DX001 (ip), vehicle: acetone) 97 % of control; under setting [4], 88 % of control; (dose: 400.0 mg/kg/injection, schedule: Q01DX001 (ip), vehicle: acetone) 92 % of control; under setting [5], 88 % of control.

For the compound `CCCCCCCCCC(=O)CCCCC`, the T/C is, setting by setting: (dose: 100.0 mg/kg/injection, schedule: Q01DX009 (ip), vehicle: other) 100 % of control; (dose: 200.0 mg/kg/injection, schedule: Q01DX009 (ip), vehicle: other) 98 % of control; (dose: 400.0 mg/kg/injection, schedule: Q01DX009 (ip), vehicle: other) 93 % of control.

On to `C(=N/OC(c1ccccc1)(c1ccccc1)c1ccccc1)/c1ccccc1`, for which the T/C is 98 % of control (dose: 50.0 mg/kg/injection, schedule: Q01DX009 (ip), vehicle: saline); 92 % of control (dose: 75.0 mg/kg/injection, schedule: Q04DX003 (ip), vehicle: saline); 104 % of control under setting [3]; 101 % of control under setting [6]; 95 % of control under setting [7]; 94 % of control (dose: 150.0 mg/kg/injection, schedule: Q04DX003 (ip), vehicle: saline). For the same compound, the T/C runs as follows: under setting [4], 98 % of control; under setting [8], 103 % of control; under setting [9], 95 % of control; (dose: 300.0 mg/kg/injection, schedule: Q04DX003 (ip), vehicle: saline) 89 % of control; under setting [10], 101 % of control; under setting [11], 95 % of control.

For the compound `CC(=O)NN(c1ccc([N+](=O)[O-])cc1)c1ccc([N+](=O)[O-])cc1`, the T/C is, setting by setting: (dose: 50.0 mg/kg/injection, schedule: Q01DX009 (ip), vehicle: Klucel (hydroxypropylcellulose) (HPC)) 97 % of control; under setting [12], 90 % of control; under setting [6], 93 % of control; under setting [8], 95 % of control.

Consider `CCCCCCCCC(=O)CCC`, for which the T/C under setting [12] was 98 % of control; the T/C under setting [6] was 98 % of control; the T/C (dose: 200.0 mg/kg/injection, schedule: Q01DX009 (ip), vehicle: Klucel (hydroxypropylcellulose) (HPC)) was 98 % of control; the T/C under setting [8] is 106 % of control; the T/C (dose: 400.0 mg/kg/injection, schedule: Q01DX009 (ip), vehicle: Klucel (hydroxypropylcellulose) (HPC)) is 98 % of control; the T/C under setting [10] was 91 % of control.

On to `CN(N=O)C(=O)NNC(=O)N(C)N=O`, for which the T/C is, setting by setting: (dose: 6.25 mg/kg/injection, schedule: Q01DX Z (ip), vehicle: carboxymethylcellulose (CMC)) 103 % of control; (dose: 20.0 mg/kg/injection, schedule: Q01DX Z (ip), vehicle: carboxymethylcellulose (CMC)) 152 % of control; (dose: 50.0 mg/kg/injection, schedule: Q01DX Z (ip), vehicle: carboxymethylcellulose (CMC)) 89 % of control.

Consider `COC(=O)C1(C)CCC(c2ccc(OC)cc2)C(CC(=O)O)C1=O` (configuration not stated), for which the T/C runs as follows: under setting [3], 93 % of control; under setting [7], 95 % of control; under setting [9], 98 % of control; under setting [5], 90 % of control; under setting [11], 93 % of control.

Regarding `COc1cc2c(cc1OC)C(CC1=CCN3CCC4=C(C=CCC4)C3C1)NCC2` (configuration not stated), the T/C is, setting by setting: (dose: 4.0 mg/kg/injection, schedule: Q04DX003 (ip), vehicle: water) 106 % of control; (dose: 8.0 mg/kg/injection, schedule: Q04DX003 (ip), vehicle: water) 101 % of control; (dose: 16.0 mg/kg/injection, schedule: Q04DX003 (ip), vehicle: water) 102 % of control; (dose: 32.0 mg/kg/injection, schedule: Q04DX003 (ip), vehicle: water) 101 % of control; (dose: 64.0 mg/kg/injection, schedule: Q04DX003 (ip), vehicle: water) 112 % of control.

For `C1=CC([P+](Cc2ccccc2)(c2ccccc2)c2ccccc2)CC1` (configuration not stated), the T/C (dose: 6.25 mg/kg/injection, schedule: Q04DX003 (ip), vehicle: saline) was 95 % of control; the T/C (dose: 12.5 mg/kg/injection, schedule: Q04DX003 (ip), vehicle: saline) was 90 % of control; the T/C under setting [13] was 96 % of control; the T/C under setting [14] was 93 % of control and 96 % of control.

In the case of `CN(Cc1ccccc1)C(Cc1c[nH]c2ccccc12)C(=O)O` (configuration not stated), the T/C was 111 % of control under setting [13]; 108 % of control under setting [14]; 100 % of control under setting [15]; 94 % of control under setting [7]; 91 % of control (dose: 150.0 mg/kg/injection, schedule: Q04DX003 (ip), vehicle: acetone); 109 % of control (dose: 225.0 mg/kg/injection, schedule: Q04DX003 (ip), vehicle: acetone). Moreover, under “dose: 335.0 mg/kg/injection, schedule: Q04DX003 (ip), vehicle: acetone”, the T/C is 100 % of control.

In the case of `C1CCC(C2OCCO2)CC1`, the T/C by setting is: under setting [3], 98 % of control; under setting [7], 97 % of control; under setting [4], 118 % of control; under setting [9], 94 % of control; under setting [5], 88 % of control; under setting [11], 92 % of control.

Take `COc1ccc(C(=O)CCS/C(CCO)=C(\C)N(C=O)Cc2cnc(C)nc2N)cc1`: the T/C under setting [7] is 101 % of control, the T/C under setting [9] is 101 % of control and the T/C under setting [11] was 101 % of control.

Regarding `On1ccc(N2CCOCC2)cc1=NC1CCCCC1`, the T/C by setting is: (dose: 5.0 mg/kg/injection, schedule: Q01DX001 (ip), vehicle: saline) 95 % of control; (dose: 10.0 mg/kg/injection, schedule: Q01DX001 (ip), vehicle: saline) 97 % of control; (dose: 20.0 mg/kg/injection, schedule: Q01DX001 (ip), vehicle: saline) 90 % of control; (dose: 40.0 mg/kg/injection, schedule: Q01DX001 (ip), vehicle: saline) 98 % of control; (dose: 80.0 mg/kg/injection, schedule: Q01DX001 (ip), vehicle: saline) 101 % of control; under setting [15], 103 % of control.

Turning to `Cc1c(C(N)=O)no[n+]1[O-]`, the T/C under setting [1] was 87 % of control and the T/C under setting [2] was 109 % of control.

On to `CN1CCCCCCCC(=O)C(OC(=O)c2ccc([N+](=O)[O-])cc2)CCCCCCC1` (configuration not stated), for which the T/C is 95 % of control (dose: 50.0 mg/kg/injection, schedule: Q01DX001 (ip), vehicle: carboxymethylcellulose (CMC)); 97 % of control (dose: 100.0 mg/kg/injection, schedule: Q01DX001 (ip), vehicle: carboxymethylcellulose (CMC)); 95 % of control (dose: 200.0 mg/kg/injection, schedule: Q01DX001 (ip), vehicle: carboxymethylcellulose (CMC)); 95 % of control (dose: 400.0 mg/kg/injection, schedule: Q01DX001 (ip), vehicle: carboxymethylcellulose (CMC)).
